Measured values: patent US6737383B1, “Herbicidal oxadiazolidines” (priority 1999, dated 2004)

Columns and labels:
corn = test: Test B pre/postemergence corn; assay type: in vivo, Zea mays
How it was run: (§1)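 Herbicidal effect was estimated by eye on a ten-point control scale after plants spent twelve to sixteen days in a greenhouse following soil or foliar treatment. Foliar sprays targeted plants at one to four leaves; all doses were formulated in a non-phytotoxic solvent with surfactant.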

bamyardgrass = test: Test B flood test barnyardgrass; assay type: in vivo, Echinochloa crus-galli
How it was run: (§2)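 Plants were grown to the 2-leaf stage before treatment with test chemical, then held in a greenhouse for twelve to sixteen days. Injury was visually rated against untreated controls on a 0–10 scale, where 0 is no effect and 10 is complete control.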

wild oat = test: Test B pre/postemergence wild oat; assay type: in vivo, Avena fatua
How it was run: as §1

duck salad = test: Test B flood test duck salad; assay type: in vivo, Heteranthera limosa
How it was run: as §2

rice = test: Test B flood test rice; assay type: in vivo, Oryza sativa
How it was run: as §2

cocklebur = test: Test B pre/postemergence cocklebur; assay type: in vivo, Xanthium strumarium
How it was run: as §1

velvetleaf = test: Test B pre/postemergence velvetleaf; assay type: in vivo, Abutilon theophrasti
How it was run: as §1

wheat = test: Test B pre/postemergence wheat; assay type: in vivo, Triticum aestivum
How it was run: as §1

morningglory = test: Test B pre/postemergence morningglory; assay type: in vivo, Ipomoea hederacea
How it was run: as §1

smallflower flatsedge = test: Test B flood test smallflower flatsedge; assay type: in vivo, Cyperus difformis
How it was run: as §2

surinam grass = test: Test B pre/postemergence surinam grass; assay type: in vivo, Brachiaria decumbens
How it was run: as §1

blackgrass = test: Test B pre/postemergence blackgrass; assay type: in vivo, Alopecurus myosuroides
How it was run: as §1

pigweed = test: Test B pre/postemergence pigweed; assay type: in vivo, Amaranthus retroflexus
How it was run: as §1

sugar beet = test: Test B pre/postemergence sugar beet; assay type: in vivo, Beta vulgaris
How it was run: as §1

giant foxtail = test: Test B pre/postemergence giant foxtail; assay type: in vivo, Setaria faberii
How it was run: as §1

crabgrass = test: Test B pre/postemergence crabgrass; assay type: in vivo, Digitaria sanguinalis
How it was run: as §1

rape = test: Test B pre/postemergence rape; assay type: in vivo, Brassica napus
How it was run: as §1

purple nutsedge = test: Test B pre/postemergence purple nutsedge; assay type: in vivo, Cyperus rotundus
How it was run: as §1

soybean = test: Test B pre/postemergence soybean; assay type: in vivo, Glycine max
How it was run: as §1

[1] = Postemergence, Rate 62 g/ha, scale of 0 to 10, 0 is no effect, 10 is complete control
[2] = Postemergence, Rate 125 g/ha, scale of 0 to 10 where 0 is no effect and 10 is complete control
[3] = Postemergence, Rate 250 g/ha, scale of 0 to 10, 0 is no effect, 10 is complete control
[4] = Postemergence, Rate 500 g/ha, scale of 0 to 10 where 0 is no effect and 10 is complete control
[5] = Preemergence, Rate 62 g/ha, scale 0 to 10 (0 no effect, 10 complete control)
[6] = Preemergence, Rate 125 g/ha, scale of 0 to 10 where 0 is no effect and 10 is complete control
[7] = Preemergence, Rate 500 g/ha, scale of 0 to 10 where 0 is no effect and 10 is complete control
[8] = Rate 62 g/ha, flood test species, Pre-emergence, visual evaluation after twelve to sixteen days
[9] = Rate 125 g/ha, under heading Pre-emergence, flood test species, visual evaluation after twelve to sixteen days
[10] = Rate 500 g/ha, Pre-emergence section of Table B, 0 to 10 scale (0 no effect, 10 complete control)

CCc1nc(C)c(C(C)n2c(=O)on(C(=O)N(c3ccc(F)cc3F)C(C)C)c2=O)s1 (stereo not shown) [Compound 589]
Corn plant response rating (corn; [1]): 0
Plant response rating, Corn (corn; [2]): 0
Corn plant response rating (corn; [3]): 0
Plant response rating, Corn (corn; [4]): 0
Corn plant response rating (corn; [5]): 0
Corn plant response rating (corn; [6]): 0
Corn plant response rating (0 to 10 scale) (corn; Preemergence, Rate 250 g/ha): 0
Corn plant response rating (corn; [7]): 0
Plant response rating, Barnyardgrass (0 to 10 scale, 0 is no effect, 10 is complete control) (bamyardgrass; [8]): 0
Barnyardgrass plant response rating (0 to 10 scale, 0 is no effect, 10 is complete control) (bamyardgrass; [9]): 0
Barnyardgrass plant response rating (bamyardgrass; [10]): 0
Plant response rating, Wild oats (wild oat; [2]): 0
Wild oats plant response rating (wild oat; [3]): 0
Wild oats plant response rating (wild oat; [5]): 0
Wild oats plant response rating (wild oat; [6]): 0
Wild oats plant response rating (wild oat; [7]): 0
Plant response rating, Ducksalad (0 to 10 scale, 0 is no effect, 10 is complete control) (duck salad; [8]): 0
Ducksalad plant response rating (0 to 10 scale, 0 is no effect, 10 is complete control) (duck salad; [9]): 0
Ducksalad plant response rating (duck salad; [10]): 0
Plant response rating, Rice (0 to 10 scale, 0 is no effect, 10 is complete control) (rice; [8]): 0
Rice plant response rating (0 to 10 scale, 0 is no effect, 10 is complete control) (rice; [9]): 0
Rice plant response rating (rice; [10]): 0
Cocklebur plant response rating (cocklebur; [1]): 0
Plant response rating, Cocklebur (cocklebur; [2]): 0
Cocklebur plant response rating (cocklebur; [3]): 0
Plant response rating, Cocklebur (cocklebur; [4]): 0
Cocklebur plant response rating (cocklebur; [5]): 0
Cocklebur plant response rating (cocklebur; [6]): 0
Cocklebur plant response rating (0 to 10 scale) (cocklebur; Preemergence, Rate 250 g/ha): 0
Cocklebur plant response rating (cocklebur; [7]): 0
Plant response rating, Velvetleaf (velvetleaf; [2]): 2
Velvetleaf plant response rating (velvetleaf; [3]): 5
Plant response rating, Velvetleaf (velvetleaf; [4]): 5
Velvetleaf plant response rating (velvetleaf; [5]): 0
Velvetleaf plant response rating (velvetleaf; [6]): 0
Velvetleaf plant response rating (velvetleaf; [7]): 0
Plant response rating, Wheat (wheat; [2]): 0
Wheat plant response rating (wheat; [3]): 0
Plant response rating, Wheat (wheat; [4]): 0
Wheat plant response rating (wheat; [5]): 0
Wheat plant response rating (wheat; [6]): 0
Wheat plant response rating (wheat; [7]): 0
Morningglory plant response rating (morningglory; [1]): 3
Plant response rating, Morningglory (morningglory; [2]): 3
Morningglory plant response rating (morningglory; [3]): 5
Plant response rating, Morningglory (morningglory; [4]): 6
Morningglory plant response rating (morningglory; [5]): 0
Morningglory plant response rating (morningglory; [6]): 0
Morningglory plant response rating (morningglory; [7]): 0
Plant response rating, S. Flatsedge (0 to 10 scale, 0 is no effect, 10 is complete control) (smallflower flatsedge; [8]): 0
S. Flatsedge plant response rating (0 to 10 scale, 0 is no effect, 10 is complete control) (smallflower flatsedge; [9]): 0
S. Flatsedge plant response rating (smallflower flatsedge; [10]): 0
B. signalgrass plant response rating (surinam grass; [1]): 0
Plant response rating, B. signalgrass (surinam grass; [2]): 0
B. signalgrass plant response rating (surinam grass; [3]): 0
Plant response rating, B. signalgrass (surinam grass; [4]): 3
B. signalgrass plant response rating (surinam grass; [5]): 0
B. signalgrass plant response rating (surinam grass; [6]): 0
B. signalgrass plant response rating (0 to 10 scale, 0 is no effect, 10 is complete control) (surinam grass; Preemergence, Rate 250 g/ha): 0
B. signalgrass plant response rating (surinam grass; [7]): 0
Blackgrass plant response rating (blackgrass; [1]): 0
Plant response rating, Blackgrass (blackgrass; [2]): 0
Blackgrass plant response rating (blackgrass; [3]): 2
Plant response rating, Blackgrass (blackgrass; [4]): 3
Blackgrass plant response rating (blackgrass; [5]): 0
Blackgrass plant response rating (blackgrass; [6]): 0
Blackgrass plant response rating (0 to 10 scale) (blackgrass; Preemergence, Rate 250 g/ha): 0
Blackgrass plant response rating (blackgrass; [7]): 0
Plant response rating, Redroot pigweed (pigweed; [2]): 0
Redroot pigweed plant response rating (pigweed; [3]): 2
Plant response rating, Redroot pigweed (pigweed; [4]): 2
Redroot pigweed plant response rating (pigweed; [5]): 0
Redroot pigweed plant response rating (pigweed; [6]): 0
Redroot pigweed plant response rating (pigweed; [7]): 0
Plant response rating, Sugarbeets (sugar beet; [2]): 0
Sugarbeets plant response rating (sugar beet; [3]): 0
Plant response rating, Sugarbeets (sugar beet; [4]): 0
Sugarbeets plant response rating (sugar beet; [5]): 0
Sugarbeets plant response rating (sugar beet; [6]): 0
Sugarbeets plant response rating (sugar beet; [7]): 0
Giant foxtail plant response rating (giant foxtail; [1]): 0
Plant response rating, Giant foxtail (giant foxtail; [2]): 0
Giant foxtail plant response rating (giant foxtail; [3]): 0
Plant response rating, Giant foxtail (giant foxtail; [4]): 3
Giant foxtail plant response rating (giant foxtail; [5]): 3
Giant foxtail plant response rating (giant foxtail; [6]): 9
Giant foxtail plant response rating (giant foxtail; [7]): 10
Crabgrass plant response rating (crabgrass; [1]): 0
Plant response rating, Crabgrass (crabgrass; [2]): 0
Crabgrass plant response rating (crabgrass; [3]): 1
Plant response rating, Crabgrass (crabgrass; [4]): 3
Crabgrass plant response rating (crabgrass; [5]): 0
Crabgrass plant response rating (crabgrass; [6]): 1
Crabgrass plant response rating (crabgrass; [7]): 9
Rape plant response rating (rape; [1]): 0
Plant response rating, Rape (rape; [2]): 0
Rape plant response rating (rape; [3]): 0
Plant response rating, Rape (rape; [4]): 2
Rape plant response rating (rape; [5]): 0
Rape plant response rating (rape; [6]): 0
Rape plant response rating (rape; [7]): 0
Nutsedge plant response rating (purple nutsedge; [1]): 0
Plant response rating, Nutsedge (purple nutsedge; [2]): 0
Nutsedge plant response rating (purple nutsedge; [5]): 0
Nutsedge plant response rating (purple nutsedge; [6]): 0
Nutsedge plant response rating (purple nutsedge; [7]): 9
Plant response rating, Soybean (soybean; [2]): 3
Soybean plant response rating (soybean; [3]): 3
Plant response rating, Soybean (soybean; [4]): 3
Soybean plant response rating (soybean; [5]): 0
Soybean plant response rating (soybean; [6]): 0
Soybean plant response rating (soybean; [7]): 0
